How the values were obtained:
[1] = test system: sunflower restorer line GIM 5-6 (A122T); test: Greenhouse imazapir dose response, GIM 5-6; type: in vivo, Helianthus annuus; conditions: GIM5-6 (A122T), 14 DAT
Experimental: (§1) A greenhouse study was conducted to quantify and contrast the imazapir sensivity of the mutants A122T and A205V in different genetic backgrounds at the whole plant level in sunflower. Seeds of the different sunflower lines that were used in this study were obtained under field conditions.
(§2) Seeds were sown in Petri dishes and, after germination, plantlets were transplanted to pots of 10 cm of diameter in a potting media consisting of equal parts of vermiculite, soil and sand. Plants were grown in a greenhouse under natural light conditions supplemented with 400 W sodium halide lamps to provide a 16 hrs daylength. Day/night temperatures were 25 and 20° C., respectively. At the V2 stage 10 plants of each genotype were randomly assigned to each treatment consisting of […] imazapir doses (0, 40, 80, 160, 240, 320, 400 and 480 g ai/ha), and a zero-time biomass determination. Experiment was arranged as a randomized block design with a full factorial (sunflower line×treatment) arrangement of treatments and 10 replications.
(§3) On the day of herbicide application ten plants of each genotype were cut at the cotyledonal node and dried at 60° C. for 48 hrs zero-time for dried weight determination. […] Height was determined as the distance between the cotyledonal node and the apex of each plant. For root biomass determination, each plant was taken from the pot and the potting media was washed out from the roots. Above ground biomass data from each line were converted to biomass accumulation after application by subtracting the appropriate average zero-time biomass from each sample. Dry biomass data were converted to percentages of the untreated control plants within each line to allow direct comparisons between groups.

[2] = test system: sunflower line GM1606 (A122T); test: Greenhouse imazapir dose response, GM1606; type: in vivo, Helianthus annuus; conditions: 14 DAT
Experimental: as §1, §2, §3

CC(C)C1(C)N=C(c2ncccc2C(=O)O)NC1=O (stereo not drawn) [Imazapyr, imazapyr]
biomass accumulation, % of untreated ([1]; 0.5x (40 g ai/ha)): 100.0%
plant height, % of untreated ([1]; 0.5x (40 g ai/ha)): 100.0%
root dry weight, % of untreated ([1]; 0.5x (40 g ai/ha)): 100%
biomass accumulation, % of untreated ([1]; 1x (80 g ai/ha)): 96.4%
plant height, % of untreated ([1]; 1x (80 g ai/ha)): 100.0%
root dry weight, % of untreated ([1]; 1x (80 g ai/ha)): 88.0%
biomass accumulation, % of untreated ([1]; 2x (160 g ai/ha)): 97.7%
plant height, % of untreated ([1]; 2x (160 g ai/ha)): 99.1%
root dry weight, % of untreated ([1]; 2x (160 g ai/ha)): 90.0%
biomass accumulation, % of untreated ([1]; 3x (240 g ai/ha)): 95.8%
plant height, % of untreated ([1]; 3x (240 g ai/ha)): 98.1%
root dry weight, % of untreated ([1]; 3x (240 g ai/ha)): 98.0%
biomass accumulation, % of untreated ([1]; 4x (320 g ai/ha)): 90.8%
plant height, % of untreated ([1]; 4x (320 g ai/ha)): 91.0%
root dry weight, % of untreated ([1]; 4x (320 g ai/ha)): 80.0%
biomass accumulation, % of untreated ([1]; 5x (400 g ai/ha)): 81.9%
plant height, % of untreated ([1]; 5x (400 g ai/ha)): 94.3%
root dry weight, % of untreated ([1]; 5x (400 g ai/ha)): 80.0%
biomass accumulation, % of untreated ([1]; 6x (480 g ai/ha)): 78.0%
plant height, % of untreated ([1]; 6x (480 g ai/ha)): 85.8%
root dry weight, % of untreated ([1]; 6x (480 g ai/ha)): 65.8%
biomass accumulation, % of untreated ([2]; 0.5x (40 g ai/ha)): 100.0%
plant height, % of untreated ([2]; 0.5x (40 g ai/ha)): 97.0%
root dry weight, % of untreated ([2]; 0.5x (40 g ai/ha)): 100%
biomass accumulation, % of untreated ([2]; 1x (80 g ai/ha)): 100.0%
plant height, % of untreated ([2]; 1x (80 g ai/ha)): 95.7%
root dry weight, % of untreated ([2]; 1x (80 g ai/ha)): 100.0%
biomass accumulation, % of untreated ([2]; 2x (160 g ai/ha)): 97.6%
plant height, % of untreated ([2]; 2x (160 g ai/ha)): 95.2%
root dry weight, % of untreated ([2]; 2x (160 g ai/ha)): 92.5%
biomass accumulation, % of untreated ([2]; 3x (240 g ai/ha)): 95.4%
plant height, % of untreated ([2]; 3x (240 g ai/ha)): 95.7%
root dry weight, % of untreated ([2]; 3x (240 g ai/ha)): 85.2%
biomass accumulation, % of untreated ([2]; 4x (320 g ai/ha)): 90.5%
plant height, % of untreated ([2]; 4x (320 g ai/ha)): 94.1%
root dry weight, % of untreated ([2]; 4x (320 g ai/ha)): 87.0%
biomass accumulation, % of untreated ([2]; 5x (400 g ai/ha)): 85.3%
plant height, % of untreated ([2]; 5x (400 g ai/ha)): 94.3%
root dry weight, % of untreated ([2]; 5x (400 g ai/ha)): 88.1%
biomass accumulation, % of untreated ([2]; 6x (480 g ai/ha)): 83.0%
plant height, % of untreated ([2]; 6x (480 g ai/ha)): 91.4%
root dry weight, % of untreated ([2]; 6x (480 g ai/ha)): 69.5%

— US20150181873A1, “HERBICIDE-RESISTANT SUNFLOWER PLANTS, POLYNUCLEOTIDES ENCODING HERBICIDE=RESISTANT ACETO HYDROXY ACID SYNTHASE LARGE SUBUNIT PROTEINS, AND METHODS OF USE” (NIDERA S.A., priority 2013, published 2015)
